Laboratory results from US6620805B1, “Delivery of nucleic acids by porphyrins” (Yale University, priority 1996, dated 2003).
Like-named read-outs stand apart in the source and are kept apart here.

Key:
oligo A [1] = assay: Carboxymethyl (CM) ion exchange column binding of labelled oligo to cationic porphyrin; details: for porphyrin required for complete binding (saturation) of 60 μg oligo: 60 μg oligo A, 150 mM NaCl, 30 min room temperature, column binding assay
HepG2 2.2.15 cells [2] = details: 5 μg oligo A, 4 h; for cellular delivery compared with TMP: 0-300 μg porphyrin
Method: HepG2 2.2.15 cells were set up in 96 well plates as above. […] Complexes were added to the cultures and incubated at 37° C. for 4 h. The monolayers were washed three times with PBS and cells were lysed and counted as previously described.

oligo A [3] = details: 2.4 μg TMP, 150 mM NaCl
From the text: The interaction of nucleic acids with water soluble porphyrins can easily be followed by measuring the absorbance spectrum of the porphyrin in the range 350-450 nm. Porphyrins have a characteristic Soret peak in this wavelength range. […] Spectra were taken over the range 300-500 nm and the wavelength of the Soret peak plotted against the mass of EGS.

HepG2 2.2.15 cells [4] = assay: Fluorescence microscopy of delivered fluorescent oligo; assay type: cell-based, human; details: 100 μg fluorescent oligo, with 100 μg TMP or free, 1.5 h and 4 h
Method: A 30 mer oligo containing a 5′ fluorescein isothiocyanate molecule was synthesised, oligo C. Sterile glass coverslips were placed into the wells of 6-well plates and HepG2 2.2.15 cells were seeded into the wells at 5×10^4 cells/well. […] After 1.5 h and 4 h the coverslips were removed from the wells, dipped five times in PBS to remove excess oligo and were fixed in 4% formaldehyde in PBS. The coverslips were mounted in Slowfade (Molecular Probes, Inc.), and viewed on a Nikon Diaphot fluorescence microscope.

HepG2 2.2.15 cells [5] = assay: Delivery of TMP-complexed oligo to hepatoma cells in culture (cell-associated radioactivity); assay type: cell-based, human
Method: The complexed oligo was delivered to the cell cultures (6 replicates per variable), samples were removed for measurement of delivered radioactivity cpm and the cultures were returned to a 37° C. incubator for 4 h. Cultures were washed three times with 100 μl PBS and cells were lysed with SDS lysis buffer for extraction of nucleic acids (0.5% SDS, 10 mM Tris HCl pH 7.4, 10 mM EDTA, 10 mM NaCl, […] proteinase K). Lysates were counted to determine cell-associated radioactivity and nucleic acids were extracted from the lysate by phenol-chloroform treatment and ethanol precipitation.

hepatoma cells = assay: Timecourse of binding/uptake of TMP-delivered oligo to hepatoma cells; assay type: cell-based, human; details: 30 μg TMP and 10 μg oligo A
Method: A timecourse experiment was carried out to determine the kinetics of binding/uptake of TMP-delivered oligonucleotides to hepatoma cells. […] A control timecourse was prepared without a delivery vehicle. Nucleic acids were recovered from one set of wells and were purified and analysed as described above.

9.5 kbp plasmid = details: 20 μg 9.5 kbp plasmid, 500 μg TMP
[6] = 100 or 200 μg TMP with 100 μg oligo
Method: An internally-labelled Oligo A was prepared by kinasing a component oligo with ^33P ATP and ligating this shorter oligo to another short component cold oligo to form the full-length version. […] After 2 h and 24 h the mice were killed by cervical dislocation, weighed and their livers removed. Livers were weighed, homogenized and a small sample counted by liquid scintillation counting.

HepG2 2.2.15 = details: TMP concentration; 700 nM TMP: 100 nM EGS; daily treatments for 5 days
Method: (§1) The human hepatoma cell line HepG2 2.2.15 containing four copies of the HBV genome was used in this study. Cells were plated out (2×10^4/well) into 96 well plates and left for 5 days until confluent. […] The various dilutions were added to the cell monolayers (6 replicates per concentration). Daily treatments were carried out for 5 days changing the medium each day. After the fifth day cell culture supernatant was removed and assayed for extracellular HBV DNA levels by dot-blot using the method of Korba B. E. and Gerin J. L. (Use of a standardized cell culture assay to assess activities of nucleoside analogs against Hepatitis B virus replication. (1992) Antiviral Research 19, 55-70).

HBV = assay: Anti HBV activity in cell culture (extracellular HBV DNA by dot-blot); assay type: cell-based, Hepatitis B virus; details: TMP concentration corresponding to 100 nM EGS
Method: as §1

[7] = 200 μg oligo A with 100 μg TMP
Method: After 8 h and 24 h mice were sacrificed and their livers quickly immersed in OCT medium (Tissue-Tek) and frozen in liquid N2. Thin sections were cut and sections were mounted on glass slides. Localisation of EGS in the liver section was determined by hybridisation of a ^33P-labelled antisense oligonucleotide complementary to the EGS sequence, and overlaying with a photographic emulsion. Background hybridisation was determined using a ^33P-labelled oligo with the same sequence as the EGS.

HepG2 2.2.15 cells [8] = assay: Influence of serum on TMP delivery of EGS; assay type: cell-based, human; details: 30 μg TMP with 5 μg oligo A; 0, 4% or 10% serum; 4 h and 24 h
Method: Ninety-six well plates were set up as described above and allowed to grow until 80% confluence. Six replicate wells for each variable were washed twice with PBS. OPTI MEM (0 serum), 4% FCS in RPMI or 10% FCS in RPMI was added to the appropriate wells.
Oligo A was radiolabelled as above. These complexes were added to the wells (in replicates of 6) and after 4 h and 24 h the monolayers were washed 3 times with PBS. Cells were lysed as above and radioactivity counted.

Fe(III)-tetra-(N-methyl-4-pyridyl)-porphyrin chloride [Fe TMP]
influence of chelated Fe atom on nucleic acid binding (oligo A [1]; compared with TMP): behaved no differently than TMP alone | cellular delivery compared with TMP (HepG2 2.2.15 cells [2]): does not affect cellular delivery by TMP up to a level of 30 μg | porphyrin amount giving maximal nucleic acid uptake (HepG2 2.2.15 cells [2]): 30 µg

C[N+](C)(C)c1ccc(-c2c3nc(c(-c4ccc([N+](C)(C)C)cc4)c4ccc([nH]4)c(-c4ccc([N+](C)(C)C)cc4)c4nc(c(-c5ccc([N+](C)(C)C)cc5)c5ccc2[nH]5)C=C4)C=C3)cc1 [TMA, meso tetra(trimethyl anilinium)porphine]
porphyrin required for complete binding (saturation) of 60 μg oligo (oligo A [1]): approximately 100 μg | cellular delivery compared with TMP (HepG2 2.2.15 cells [2]): never as great as the TMP analogues | porphyrin amount giving maximal nucleic acid uptake (HepG2 2.2.15 cells [2]): 11 µg

C[n+]1ccc(-c2c3nc(c(-c4cc[n+](C)cc4)c4ccc([nH]4)c(-c4cc[n+](C)cc4)c4nc(c(-c5cc[n+](C)cc5)c5ccc2[nH]5)C=C4)C=C3)cc1.Cc1ccc(S(=O)(=O)[O-])cc1.Cc1ccc(S(=O)(=O)[O-])cc1.Cc1ccc(S(=O)(=O)[O-])cc1.Cc1ccc(S(=O)(=O)[O-])cc1 [TMP, Meso-tetra(N-methyl-4 pyridyl)porphine Tetra Tosylate]
mass of oligo at saturation (Soret peak reached 440 nm) (oligo A [3]): approximately 3 μg | intracellular location of fluorescence (HepG2 2.2.15 cells [4]): All nuclei of the cells in the TMP-delivered fluorescent oligo cultures appeared brightly fluorescent | oligo delivered (HepG2 2.2.15 cells [5]; 1 μg delivered dose of oligo, 4 h): 0.5 µg | oligo delivered (HepG2 2.2.15 cells [5]; 5 μg delivered dose of oligo, 4 h): 2.8 µg | oligo delivered (HepG2 2.2.15 cells [5]; 10 μg delivered dose of oligo, 4 h): 4.8 µg | TMP amount at saturation of binding or uptake (HepG2 2.2.15 cells [5]; 1, 5 or 10 μg oligo A, 4 h): 30 µg | maximum oligo cell associated (HepG2 2.2.15 cells [5]; 3×10^4 cells): 4 to 5 µg | added dose cell-associated (HepG2 2.2.15 cells [5]; all oligo doses, 4 h): Approximately 50% | porphyrin required for complete binding (saturation) of 60 μg oligo (oligo A [1]): 60 µg | stoichiometry of oligo:TMP at saturation (oligo A [1]; 30 mer oligo, charge neutralisation): 4 molecules of oligo interact with 29 molecules of TMP | oligo cell-associated (hepatoma cells; 8 h timepoint): greater than 75% | change in cell-associated material after 24 h (hepatoma cells; 24 h): reduction in the material cell-associated | plasmid bound to TMP (9.5 kbp plasmid): 5 µg | persistence of delivered oligo in the liver [6]: persisted for 24 h | tolerability in mice ([6]; tail vein): well tolerated | concentration showing no toxicity (HepG2 2.2.15): less than 700 nM | hepatic EGS levels over time (100 μg EGS with 20 μg TMP per mouse (lower TMP dose)): declined slightly over time | hepatic EGS levels over time (100 μg EGS with 100 μg TMP per mouse (higher TMP dose)): gradually increased | EGS level in kidney over time (100 μg EGS with 100 or 20 μg TMP per mouse, 2-72 h): rapid initial peak in the kidney which declined over 72 h | EGS levels in spleen, fat and serum (100 μg EGS with TMP, mice): negligible | enhancement with the higher TMP level (100 versus 20 μg TMP, same amount of EGS): two-fold | liver toxicity (mice, 100 μg EGS with 100 or 20 μg TMP): No liver toxicity was detected | antiviral activity of TMP (HBV): highly antiviral | hybridisation signal in liver after 24 h ([7]; 24 h): level of signal is reduced after 24 h | intrahepatic distribution of EGS ([7]; tail vein, mice): substantial EGS present in all hepatocytes | material cell-associated (HepG2 2.2.15 cells [8]): 50-70%
